Measured values: patent publication US6479531B1, “Gastrin and cholecystokinin receptor ligands” (James Black Foundation Limited, priority 1998, dated 2002)

Biological target: T1, gastrin receptor (Rattus norvegicus, UniProt P30553)
T1 construct: The stomach was excised and flushed with ca. 1 ml of unbuffered physiological saline solution; from tissue; host or cells: isolated whole stomach of immature rats (ca. 21 days old)
T1 sequence (P30553 1-452): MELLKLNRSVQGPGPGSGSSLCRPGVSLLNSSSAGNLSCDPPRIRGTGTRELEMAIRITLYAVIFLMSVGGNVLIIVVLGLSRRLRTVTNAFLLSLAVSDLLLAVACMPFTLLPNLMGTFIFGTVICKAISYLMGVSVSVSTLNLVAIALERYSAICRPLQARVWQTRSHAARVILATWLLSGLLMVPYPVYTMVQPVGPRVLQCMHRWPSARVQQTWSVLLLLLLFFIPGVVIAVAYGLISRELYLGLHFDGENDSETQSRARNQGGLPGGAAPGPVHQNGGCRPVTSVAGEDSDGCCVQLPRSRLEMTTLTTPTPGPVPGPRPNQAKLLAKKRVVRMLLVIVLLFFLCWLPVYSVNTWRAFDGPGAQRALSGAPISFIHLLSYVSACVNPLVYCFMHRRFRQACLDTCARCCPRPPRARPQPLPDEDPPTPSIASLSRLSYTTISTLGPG
Experiment: gastrin antagonist activity in immature rat stomach assay (pentagastrin dose-response, acid secretion)
Conditions: isolated immature rat stomach, cumulative pentagastrin dose-response curves
Procedure: The compounds of the examples were also tested for gastrin antagonist activity in an immature rat stomach assay. The procedure was as follows:
The oesophagus of immature rats (33-50 g, ca. 21 days old) was ligated at the level of the cardiac sphincter and the duodenal sphincter was cannulated. The stomach was excised and flushed with ca. 1 ml of unbuffered physiological saline solution. The fundus was punctured and cannulated. A further 4-5 ml of unbuffered solution was flushed through the stomach to ensure the preparation was not leaking. The stomach was lowered into a jacketed organ bath containing 40 ml of buffered solution containing 3×10^−8 M 5-methylfurmethide, maintained at 37° and gassed vigorously with 95% O2/5% CO2. The stomach was continuously perfused at a rate of 1 ml min^−1 with unbuffered solution gassed with 100% O2 with the perfusate passing over an internally referenced pH-electrode fixed 12 cm above the stomach.
After 120 min of stabilisation the drugs were added directly to the serosal solution in the organ bath and after a further 60 min cumulative pentagastrin dose-response curves were started. Changes in acid secretion were monitored and the curves analysed according to Black et al., Br. J. Pharmacol., 1985, 86, 581.

In order of falling “Gastrin pKb” value:
1. O=C(O)c1cccc(NC(=O)c2nc([C@H]3CC4CC[C@H]3C4)[nH]c2COC23CC4CC(CC(C4)C2)C3)c1 [Example 291, endo-3-{[5-(Adamantan-1-yloxymethyl)-2-((1S,2S)-bicyclo[2.2.1]hept-2-yl)-1H-imidazole-4-carbonyl]-amino}-benzoic Acid]  9.12
2. Cc1ccc(NC(=O)c2nc([C@@H]3CC4C=C[C@H]3C4)[nH]c2COC23CC4CC(CC(C4)C2)C3)cc1C(=O)O [Example 290, endo-5-{[5-(Adamantan-1-yloxymethyl)-2-((1R,2R)-bicyclo[2.2.1]hept-5-en-2-yl)-1H-imidazole-4-carbonyl]-amino}-2-methyl-benzoic Acid]  8.55
3. O=C(O)c1cccc(NC(=O)c2nc([C@@H]3CC4C=C[C@@H]3C4)[nH]c2COC23CC4CC(CC(C4)C2)C3)c1 [Example 294, exo-3-([5-(Adamantan-1-yloxymethyl)-2-((1S,2R)-bicyclo[2.2.1]hept-5-en-2-yl)-1H-imidazole-4-carbonyl]-amino}-benzoic Acid]  8.43
4. (3-{[5-(Adamantan-1-yloxymethyl)-2-cyclohet-4-enyl-1H-imidazole-4-carbonyl]-amino}-phenyl)-acetic Acid [Example 231]  7.49
5. (±)-5-{[5-(2-Adamantan-1-yl-ethyl)-2-[1-methyl-piperidin-2-yl])-1H-imidazole-4-carbonyl]-amino}-2-methyl-benzoic Acid [Example 141]  7.21

Same assay, conditions: isolated immature rat stomach, cumulative pentagastrin dose-response curves, read-out: Gastrin pKb (converted)

In order of rising Kb:
1. O=C(O)c1cccc(NC(=O)c2nc(C34C=CC(CC3)CC4)[nH]c2COC23CC4CC(CC(C4)C2)C3)c1 [Example 225, 3-{[5-(Adamantan-1-yloxymethyl)-2-bicyclo[2.2.2]oct-2-en-1-yl-1H-imidazole-4-carbonyl]-amino}-benzoic Acid]  0.000661 µM
2. O=C(O)c1cc(NC(=O)c2nc(C34CCC(CC3)CC4)[nH]c2COC23CC4CC(CC(C4)C2)C3)ccc1F [Example 223, 5-{[5-(Adamantan-1-yloxymethyl)-2-bicyclo[2.2.2]oct-1-yl-1H-imidazole-4-carbonyl]-amino}-2-fluoro-benzoic Acid]  0.000776 µM
3. Cc1ccc(NC(=O)c2nc(C34C=CC(CC3)CC4)[nH]c2COC23CC4CC(CC(C4)C2)C3)cc1C(=O)O [Example 301, 5-{[5-(Adamantan-1-yloxymethyl)-2-bicyclo[2.2.2]oct-2-en-1-yl-1H-imidazole-4-carbonyl]-amino}-2-methyl-benzoic Acid]  0.00263 µM
4. Cc1ccc(NC(=O)c2nc(-c3ccccc3C)[nH]c2COC23CC4CC(CC(C4)C2)C3)cc1C(=O)O [Example 305, 5-{[5-(Adamantan-1-yloxymethyl)-2-o-tolyl-1H-imidazole-4-carbonyl]-amino}-2-methyl-benzoic Acid]  0.01 µM
5. Cn1c(C2CCCCC2)nc(C(=O)Nc2cccc(C(=O)O)c2)c1CCC12CC3CC(CC(C3)C1)C2 [Example 214, 3-{[5-(2-Adamantan-1-yl-ethyl)-2-cyclohexyl-1-methyl-1H-imidazole-4-carbonyl]-amino}-benzoic Acid]  0.0102 µM
6. O=C(O)c1cccc(NC(=O)c2nc(C3C4C=CC3C=C4)[nH]c2COC23CC4CC(CC(C4)C2)C3)c1 (stereo not drawn) [Example 288, 3-{[5-(Adamantan-1-yloxymethyl)-2-bicyclo[2.2.1]hepta-2,5-dien-7-yl-1H-imidazole-4-carbonyl]-amino}-benzoic Acid]  0.0132 µM
7. CN1CCCCC1c1nc(C(=O)Nc2cccc(C(=O)O)c2)c(CCC23CC4CC(CC(C4)C2)C3)[nH]1 (racemic) [Example 139, (±)-3-{[5-(2-Adamantan-1-yl-ethyl)-2-(1-methyl-piperidin-2-yl)-1H-imidazole-4-carbonyl]-amino}-benzoic Acid]  0.0158 µM
8. O=C(O)c1cccc(NC(=O)c2c(COC34CC5CC(CC(C5)C3)C4)nc(-c3c(Cl)cccc3Cl)n2O)c1 [Example 313, 3-{[5-(Adamantan-1-yloxymethyl)-2-(2,6-dichloro-phenyl)-3-hydroxy-3H-imidazole-4-carbonyl]-amino}-benzoic Acid]  0.0186 µM
9. Cc1ccccc1-c1nc(C(=O)Nc2cccc(C(=O)O)c2)c(COC23CC4CC(CC(C4)C2)C3)[nH]1 [Example 304, 3-{[5-(Adamantan-1-yloxymethyl)-2-o-tolyl-1H-imidazole-4-carbonyl]-amino}-benzoic Acid]  0.024 µM
10. O=C(O)c1cccc(NC(=O)c2nc(C3C4CC5CC(C4)CC3C5)[nH]c2CCC23CC4CC(CC(C4)C2)C3)c1 (stereo not drawn) [Example 207, 3-{[2-Adamantan-2-yl-5-(2-adamantan-1-yl-ethyl)-1H-imidazole-4-carbonyl]-amino}benzoic Acid]  0.0692 µM
11. Cc1cc(C)c(-c2nc(C(=O)Nc3ccc(F)c(C(=O)O)c3)c(CCC34CC5CC(CC(C5)C3)C4)[nH]2)c(C)n1 [Example 184, 5-{[5-(2-Adamantan-1-yl-ethyl)-2-(2,4,6-trimethyl-pyridine-3-yl)-1H-imidazole-4-carbonyl]-amino}-2-fluoro-benzoic Acid]  0.0708 µM
12. O=C(O)CCc1c(F)ccc(NC(=O)c2nc(C3CCCCC3)[nH]c2CCC23CC4CC(CC(C4)C2)C3)c1F [Example 284, 3-(3-{[5-(2-Adamantan-1-yl-ethyl)-2-cyclohexyl-1H-imidazole-4-carbonyl]-amino}-2,6-difluoro-phenyl)-propionic Acid]  0.0977 µM
13. CCOC(=O)Cn1c(-c2ccccc2C)nc(C(=O)Nc2cccc(C(=O)O)c2)c1CCC12CC3CC(CC(C3)C1)C2 [Example 250, 3-{[5-(2-Adamantan-1-yl-ethyl)-1-ethoxycarbonylmethyl-2-o-tolyl-1H-imidazole-4-carbonyl]-amino}-benzoic Acid]  0.186 µM
14. O=C(O)Cc1c(F)ccc(NC(=O)c2nc(C3CCCCC3)[nH]c2CCC23CC4CC(CC(C4)C2)C3)c1F [Example 270, (3-{[5-(2-Adamantan-1-yl-ethyl)-2-cyclohexyl-1H-imidazole-4-carbonyl]-amino}-2,6-difluoro-phenyl)-acetic Acid]  0.195 µM
15. O=C(Nc1cccc(S(=O)(=O)O)c1)c1nc(C2CCCCC2)[nH]c1CCC12CC3CC(CC(C3)C1)C2 [Example 268, 3-{[5-(2-Adamantan-1-yl-ethyl)-2-cyclohexyl-1H-imidazole-4-carbonyl]-amino}-benzenesulfonic Acid]  0.224 µM
16. O=C(O)CCc1cc(NC(=O)c2nc(C3CCCCC3)[nH]c2CCC23CC4CC(CC(C4)C2)C3)ccc1Cl [Example 271, 3-(5-{[5-(2-Adamantan-1-yl-ethyl)-2-cyclohexyl-1H-imidazole-4-carbonyl]-amino)-2-chloro-phenyl)-propionic Acid]  0.355 µM
17. Cn1c(C2CCCCC2)nc(C(=O)Nc2cccc(CC(=O)O)c2)c1CCC12CC3CC(CC(C3)C1)C2 [Example 215, (3-{[5-(2-Adamantan-1-yl-ethyl)-2-cyclohexyl-1-methyl-1H-imidazole-4-carbonyl]-amino}-phenyl)-acetic Acid]  0.363 µM
18. O=C(O)c1cccc(OC(=O)c2nc(C3CCCCC3)[nH]c2CCC23CC4CC(CC(C4)C2)C3)c1 [Example 282, 5-(2-Adamantan-1-yl-ethyl)-2-cyclohexyl-1H-imidazole-4-carboxylic Acid 3-carboxy-phenyl Ester]  0.708 µM
19. O=C(O)C=Cc1cc(NC(=O)c2nc(C3CCCCC3)[nH]c2CCC23CC4CC(CC(C4)C2)C3)ccc1Cl [Example 269, 3-(5-{[5-(2-Adamantan-1-yl-ethyl)-2-cyclohexyl-1H-imidazole-4-carbonyl]-amino}-2-chloro-phenyl)-acrylic Acid]  0.933 µM
